Laboratory results reported in publication PMC10860144, “Exploring the Dispersion and Electrostatic Components in Arene–Arene Interactions between Ligands and G4 DNA to Develop G4-Ligands” (Journal of Medicinal Chemistry, 2024).
Like-named read-outs stand apart in the source and are kept apart here.

Tests used:
[1] = system: G4 DNA structures in HeLa cells; assay: BG4 immunostaining of G4 DNA structures in HeLa cells; assay type: cell-based, human; settings: 24 h
Method: The pSANG10-3F-BG4 construct, for expression and purification of recombinant BG4 (BG4), was a gift from Shankar Balasubramanian (Addgene plasmid # 55756). BG4 was purified as previously described.[49] BG4 immunostaining was performed as previously described.[50] Briefly, 60,000 HeLa cells were seeded on 13 mm glass coverslips the day before treatment. Cells were treated for 24 h with the compounds at the indicated concentrations. After treatment, cells were fixed in 2% paraformaldehyde and permeabilized in 0.1% Triton X-100 at room temperature. […] Cell nuclei were focused on the DAPI channel, and BG4-positive foci were counted in a semiautomatic mode using a customized Cell Profiler (Broad Institute) pipeline. […]
Figure S23. Toxicity of 5 and 27 calculated as % viability of IHTLCP cells treated for 72h at the indicated concentrations compared to non-treated cells. […] IC50 and R2 determined with Graph Pad Prism is indicated. […]
Cells were imaged with a LEICA SP8 FALCON confocal microscope equipped with a 63× oil objective (NA 1.40) using identical acquisition settings. Cell nuclei were focused on the DAPI channel, and BG4-positive foci were counted in a semiautomatic mode using a customized Cell Profiler (Broad Institute) pipeline. […]

THP-1 cell line = assay: THP-1 cell viability (cytotoxicity); assay type: cell-based, human; settings: read-out: Cell viability IC50 (THP1)
Method: THP1 cell viability was measured according to a previously published procedure.[48] […]
Table S3. Cell permeability and cell viability for 5 and 27
Compound Cell-permeability Cell viability IC50 Cell viability IC50 Cell viability IC50
(X x 10-6 cm/s) (THP1) (µM) (HeLa) (µM) (IHTLCP) (µM) […]
THP1 cell viability was measured according to a previously published procedure.9

dsDNA (5'Cy5-ds26) = assay: MST with fluorescently labeled dsDNA; assay type: binding
Method: We next challenged the compounds’ G4 selectivity with a FRET melting competition assay using 5 (2 μM) and 27 (5 μM) with c-MYC Pu22 G4 DNA and increasing amounts of dsDNA (Figure 6D and Table S1). […] In addition, we investigated if we could detect any binding of the compounds to dsDNA using MST with a fluorescently labeled dsDNA (Table S1).
5′-Cy5 labeled G4 DNAs for this study were purchased from Eurofins Genomics. Stock solutions were prepared in water at 100 μM concentration. The sequences used are listed in Supporting Information Table S1. The G4 DNA sequences were folded in KCl buffer (10 mM phosphate, 100 mM KCl, pH 7.4) by heating at 95 °C for 5 min and then cooling to room temperature. All the experiments were performed in 10 mM phosphate pH 7.4, 100 mM KCl, and 0.05% Tween20. The labeled DNA concentration is held constant at 25 nM, and ligand concentration is varied depending on ligands Kd (16 1:3 dilutions). The samples were loaded into standard MST graded glass capillaries and initial fluorescence intensity of the capillary was measured using Monolith NT.115 (Nano Temper, Germany) with 20% LED power. The change in fluorescence with ligand’s concentrations were plotted in Excel and fitted through nonlinear equation to obtain the binding constants.

[2] = Homo sapiens, THP-1, THP-1 cell line

binding to dsDNA (MST) (dsDNA (5'Cy5-ds26))	SMILES	number of BG4 foci per cell nucleus ([1]; 2 μM, versus 1 μM and mock-treated cells)	IC50 (THP-1 cell line; [2]) [nM]	IC50 (THP-1 cell line; THP-1 cell line) [nM]	number of BG4 foci per cell nucleus ([1]; 20 μM)
no binding could be observed	Cc1cc(C)c2nc(Nc3nc(C)cc(NCCCN(C)C)n3)nc(C)c2c1 [Compound 5, N4-(3-(Dimethylamino)propyl)-6-methyl-N2-(4,6,8-trimethylquinazolin-2-yl)pyrimidine-2,4-diamine]	increased significantly	2890	2900	
no binding could be observed	Cc1cc(C)c2nc(Nc3nc(C)cc(C)n3)nc(C)c2c1 [Compound 27, N-(4,6-Dimethylpyrimidin-2-yl)-4,6,8-trimethylquinazolin-2-amine]		> 50000	≥ 50000	not statistically fully significant
